Experimental data from ChEMBL document CHEMBL4184305, “Inhibition of histone lysine methyltransferases G9a and GLP by ejection of structural Zn(II)” (Bioorg Med Chem Lett, 2018).
pIC50: −log10 of the molar value. Active and inactive are the calls of the source. No cut-off for these calls is given here.

How the values were obtained:
[1] = target: T1, Histone-lysine N-methyltransferase EHMT2 (Homo sapiens) (UniProt Q96KQ7); assay: Inhibition of wild type recombinant human histone lysine methyltransferase G9a (913 to 1193 residues) expressed in Escherichia coli Rosetta BL21 DE3 PlysS assessed as zinc ions ejection from Cys4-Zn finger at >50 uM after 1 hr by circular dichroism analysis
T1 sequence (whole entry): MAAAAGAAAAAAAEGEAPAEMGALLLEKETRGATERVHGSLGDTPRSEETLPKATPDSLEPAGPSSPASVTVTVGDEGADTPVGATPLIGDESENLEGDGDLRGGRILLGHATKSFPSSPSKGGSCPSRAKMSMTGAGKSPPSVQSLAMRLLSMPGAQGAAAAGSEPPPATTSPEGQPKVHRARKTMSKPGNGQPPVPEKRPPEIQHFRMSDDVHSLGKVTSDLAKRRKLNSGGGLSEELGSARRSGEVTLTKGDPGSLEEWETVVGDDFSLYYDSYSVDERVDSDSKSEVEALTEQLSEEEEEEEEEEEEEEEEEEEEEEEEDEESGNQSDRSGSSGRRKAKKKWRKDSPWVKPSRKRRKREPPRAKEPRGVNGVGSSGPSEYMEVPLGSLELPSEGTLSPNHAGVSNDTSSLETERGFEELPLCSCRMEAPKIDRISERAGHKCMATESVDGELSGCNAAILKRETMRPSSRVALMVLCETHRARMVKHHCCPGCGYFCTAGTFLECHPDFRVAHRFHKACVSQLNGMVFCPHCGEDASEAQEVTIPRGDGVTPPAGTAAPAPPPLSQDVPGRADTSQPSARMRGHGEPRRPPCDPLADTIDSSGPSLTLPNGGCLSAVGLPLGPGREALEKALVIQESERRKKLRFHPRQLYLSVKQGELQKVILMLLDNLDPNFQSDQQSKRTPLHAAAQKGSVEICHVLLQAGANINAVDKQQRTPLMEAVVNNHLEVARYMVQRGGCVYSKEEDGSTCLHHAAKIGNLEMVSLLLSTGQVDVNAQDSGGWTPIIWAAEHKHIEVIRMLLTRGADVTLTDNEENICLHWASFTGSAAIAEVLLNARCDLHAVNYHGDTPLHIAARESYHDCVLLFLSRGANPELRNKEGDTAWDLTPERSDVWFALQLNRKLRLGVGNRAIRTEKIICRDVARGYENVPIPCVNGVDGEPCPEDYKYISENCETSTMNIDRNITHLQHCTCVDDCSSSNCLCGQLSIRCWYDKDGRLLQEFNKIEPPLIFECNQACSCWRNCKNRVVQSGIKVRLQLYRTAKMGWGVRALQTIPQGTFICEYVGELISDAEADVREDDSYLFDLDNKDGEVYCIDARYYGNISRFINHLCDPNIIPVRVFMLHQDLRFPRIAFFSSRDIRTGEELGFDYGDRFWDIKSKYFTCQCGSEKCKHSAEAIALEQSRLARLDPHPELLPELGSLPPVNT

[2] = target: T1, Histone-lysine N-methyltransferase EHMT2 (Homo sapiens); assay: Inhibition of wild type recombinant human histone lysine methyltransferase G9a (913 to 1193 residues) expressed in Escherichia coli Rosetta BL21 DE3 PlysS assessed as zinc ions ejection from Cys4-Zn finger at 2.5 to 100 uM after 500 to 3500 secs by FluoZin-3 based fluorescence assay
[3] = target: T2, Histone-lysine N-methyltransferase EHMT1 (Homo sapiens) (UniProt Q9H9B1); assay: Inhibition of wild type recombinant human histone lysine methyltransferase GLP (951 to 1235 residues) expressed in Escherichia coli Rosetta BL21 DE3 PlysS assessed as zinc ions ejection from Cys4-Zn finger at >50 uM after 1 hr by circular dichroism analysis
T2 sequence (whole entry): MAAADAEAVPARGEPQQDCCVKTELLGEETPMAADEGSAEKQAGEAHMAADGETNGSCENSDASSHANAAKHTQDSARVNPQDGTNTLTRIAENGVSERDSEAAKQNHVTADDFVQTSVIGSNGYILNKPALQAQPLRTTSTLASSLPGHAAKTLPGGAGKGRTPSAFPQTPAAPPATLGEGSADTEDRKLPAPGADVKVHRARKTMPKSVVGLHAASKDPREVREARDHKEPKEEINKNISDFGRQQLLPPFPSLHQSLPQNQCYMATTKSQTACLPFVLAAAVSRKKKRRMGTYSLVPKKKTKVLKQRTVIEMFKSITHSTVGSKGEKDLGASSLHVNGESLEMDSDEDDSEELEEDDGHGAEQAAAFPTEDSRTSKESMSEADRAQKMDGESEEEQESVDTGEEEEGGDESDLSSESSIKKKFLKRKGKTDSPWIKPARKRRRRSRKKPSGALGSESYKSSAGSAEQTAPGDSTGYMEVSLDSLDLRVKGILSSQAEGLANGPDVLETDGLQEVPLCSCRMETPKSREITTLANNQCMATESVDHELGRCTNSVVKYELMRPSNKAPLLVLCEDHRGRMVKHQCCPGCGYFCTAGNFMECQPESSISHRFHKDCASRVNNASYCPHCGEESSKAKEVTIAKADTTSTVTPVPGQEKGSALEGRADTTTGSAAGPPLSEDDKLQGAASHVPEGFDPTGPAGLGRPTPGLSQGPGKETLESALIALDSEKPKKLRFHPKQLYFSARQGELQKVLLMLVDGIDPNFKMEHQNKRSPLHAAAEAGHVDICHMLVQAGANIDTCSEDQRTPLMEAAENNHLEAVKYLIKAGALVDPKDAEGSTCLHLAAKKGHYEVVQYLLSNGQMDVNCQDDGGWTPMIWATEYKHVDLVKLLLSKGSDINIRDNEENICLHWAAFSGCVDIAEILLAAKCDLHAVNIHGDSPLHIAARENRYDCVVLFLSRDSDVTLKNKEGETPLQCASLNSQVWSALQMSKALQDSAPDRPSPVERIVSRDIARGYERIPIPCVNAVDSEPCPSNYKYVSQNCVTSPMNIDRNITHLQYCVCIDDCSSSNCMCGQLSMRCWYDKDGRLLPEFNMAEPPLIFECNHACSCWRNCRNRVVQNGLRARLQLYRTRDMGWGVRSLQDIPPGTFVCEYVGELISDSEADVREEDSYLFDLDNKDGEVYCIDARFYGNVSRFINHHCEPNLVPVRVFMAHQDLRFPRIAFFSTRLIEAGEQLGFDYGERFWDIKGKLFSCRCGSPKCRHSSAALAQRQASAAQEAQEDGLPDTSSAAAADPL

[4] = target: T3, Histone-lysine N-methyltransferase EHMT2 (Homo sapiens, UniProt Q96KQ7); assay: Inhibition of wild type recombinant human histone lysine methyltransferase G9a (913 to 1193 residues) expressed in Escherichia coli Rosetta BL21 DE3 PlysS using ARTKQTARKSTGGKA as substrate preincubated for 5 mins followed by substrate/SAM addition measured after 60 mins by MALDI-TOF MS analysis
T3 sequence (Q96KQ7 whole entry): T1 sequence (whole entry)

[5] = target: T1, Histone-lysine N-methyltransferase EHMT2 (Homo sapiens); assay: Inhibition of wild type recombinant human histone lysine methyltransferase G9a (913 to 1193 residues) expressed in Escherichia coli Rosetta BL21 DE3 PlysS assessed as zinc ions ejection from 3 types of Cys9-type Zn fingers at >25 uM after 1 hr by circular dichroism analysis

Row | SMILES | inhibition [1] | inhibition [2] | inhibition [3] | pIC50 [4] | inhibition [5]
1 | CCN(CC)C(=S)SSC(=S)N(CC)CC | Active | Active | Active |  | 
2 | O=c1c2ccccc2[se]n1-c1ccccc1 [EBSELEN] |  |  |  | 6.40 | Active
